Results from the supplement of paper PMC11451515.

System: SEM cells
Assay: cell viability relative to DMSO control; higher = less cytotoxic
Conditions: 48 h
Procedure, shortened: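 Three leukemia lines were tested: NOMO1 and SEM at 500 cells/well and P12-Ichikawa at 1000 cells/well. Each was adapted for at least four passages in each medium and seeded in 5 μl in 1536-well plates, and library compounds in DMSO were pin-dosed from 47 μM to 0.79 nM in 11 threefold steps. After 48 h at 37°C, CellTiter-Glo One luminescence was read. Viability is a percentage relative to DMSO wells on each plate, with cell-free wells as background.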

[1] = HPLM + 10% dialyzed FBS, 0.000781 µM
[2] = HPLM + 10% dialyzed FBS, 0.00234 µM
[3] = HPLM + 10% dialyzed FBS, 0.00702 µM
[4] = HPLM + 10% dialyzed FBS, 0.0211 µM
[5] = HPLM + 10% dialyzed FBS, 0.0632 µM
[6] = HPLM + 10% dialyzed FBS, 0.19 µM
[7] = HPLM + 10% dialyzed FBS, 0.569 µM
[8] = HPLM + 10% dialyzed FBS, 1.71 µM
[9] = HPLM + 10% dialyzed FBS, 5.12 µM
[10] = HPLM + 10% dialyzed FBS, 15.4 µM
[11] = HPLM + 10% dialyzed FBS, 46.1 µM
[12] = RPMI 5 mM glucose + 10% FBS, 0.000781 µM
[13] = RPMI 5 mM glucose + 10% FBS, 0.00234 µM
[14] = RPMI 5 mM glucose + 10% FBS, 0.00702 µM
[15] = RPMI 5 mM glucose + 10% FBS, 0.0211 µM
[16] = RPMI 5 mM glucose + 10% FBS, 0.0632 µM
[17] = RPMI 5 mM glucose + 10% FBS, 0.19 µM
[18] = RPMI 5 mM glucose + 10% FBS, 0.569 µM
[19] = RPMI 5 mM glucose + 10% FBS, 1.71 µM
[20] = RPMI 5 mM glucose + 10% FBS, 5.12 µM
[21] = RPMI 5 mM glucose + 10% FBS, 15.4 µM
[22] = RPMI 5 mM glucose + 10% FBS, 46.1 µM
[23] = RPMI 5 mM glucose + 10% dialyzed FBS, 0.000781 µM
[24] = RPMI 5 mM glucose + 10% dialyzed FBS, 0.00234 µM
[25] = RPMI 5 mM glucose + 10% dialyzed FBS, 0.00702 µM
[26] = RPMI 5 mM glucose + 10% dialyzed FBS, 0.0211 µM
[27] = RPMI 5 mM glucose + 10% dialyzed FBS, 0.0632 µM
[28] = RPMI 5 mM glucose + 10% dialyzed FBS, 0.19 µM
[29] = RPMI 5 mM glucose + 10% dialyzed FBS, 0.569 µM
[30] = RPMI 5 mM glucose + 10% dialyzed FBS, 1.71 µM
[31] = RPMI 5 mM glucose + 10% dialyzed FBS, 5.12 µM
[32] = RPMI 5 mM glucose + 10% dialyzed FBS, 15.4 µM
[33] = RPMI 5 mM glucose + 10% dialyzed FBS, 46.1 µM

Row | SMILES | cell viability [1] [%] | cell viability [2] [%] | cell viability [3] [%] | cell viability [4] [%] | cell viability [5] [%] | cell viability [6] [%] | cell viability [7] [%] | cell viability [8] [%] | cell viability [9] [%] | cell viability [10] [%] | cell viability [11] [%] | cell viability [12] [%] | cell viability [13] [%] | cell viability [14] [%] | cell viability [15] [%] | cell viability [16] [%] | cell viability [17] [%] | cell viability [18] [%] | cell viability [19] [%] | cell viability [20] [%] | cell viability [21] [%] | cell viability [22] [%] | cell viability [23] [%] | cell viability [24] [%] | cell viability [25] [%] | cell viability [26] [%] | cell viability [27] [%] | cell viability [28] [%] | cell viability [29] [%] | cell viability [30] [%] | cell viability [31] [%] | cell viability [32] [%] | cell viability [33] [%]
1 | C[S+](=O)([O-])Nc1ccc([N+](=O)[O-])cc1Oc1ccccc1 | 95.8 | 103 | 99.8 | 104 | 117 | 121 | 107 | 104 | 107 | 109 | 62.9 | 88.4 | 111 | 98.6 | 90.5 | 106 | 95.7 | 108 | 105 | 103 | 82.7 | 17.2 | 103 | 112 | 124 | 110 | 109 | 102 | 95.8 | 106 | 106 | 104 | 54.3
2 | C[C@H]1C[C@@H]2[C@H](CC[C@@]3(C)[C@H]2CC[C@]3(OC(C)=O)C(C)=O)[C@@]\4(C)CCC(=O)\C=C14 | 64.9 | 101 | 79.8 | 87 | 88.5 | 85.1 | 92.9 | 87.6 | 85.3 | 88.9 | 101 | 75 | 89.9 | 97.5 | 92.2 | 105 | 96.2 | 84.5 | 96.7 | 91.6 | 80.8 | 85.9 | 75.4 | 96 | 77.3 | 105 | 101 | 94.2 | 78.7 | 94.1 | 88 | 80.1 | 88.9
3 | CC(C)(C)OC(=O)N[C@H]1CCCCC/C=C\[C@@H]2C[C@@]2(C(=O)N[S+](=O)([O-])C2CC2)NC(=O)[C@@H]2C[C@@H](OC(=O)N3Cc4cccc(F)c4C3)CN2C1=O | 71.4 | 83.9 | 83.5 | 75.7 | 97.3 | 89 | 92.1 | 79.8 | 84 | 86.6 | 80.2 | 96.1 | 99.7 | 84.5 | 73.4 | 102 | 88.9 | 101 | 103 | 93.4 | 90.2 | 85.4 | 85.2 | 91.9 | 93.4 | 105 | 94.9 | 98.5 | 121 | 115 | 93 | 91.6 | 81.3
4 | Cc1ccccc1C(=O)c1ccc(Nc2ccc(Br)cc2N)cc1Cl | – | – | – | – | – | – | – | – | – | – | – | 96 | 106 | 97.7 | 17.3 | 109 | 123 | 112 | 107 | 106 | 83.2 | 18.2 | 117 | 121 | 123 | 21.4 | 112 | 102 | 116 | 110 | 122 | 86.3 | 21.4
5 | CNCC(O)c1ccc(O)cc1 (stereo not given) | 59.8 | 87.8 | 85.6 | 80.2 | 90.1 | 95.6 | 87.9 | 86.8 | 95.3 | 99.5 | 93.6 | 96.6 | 95.4 | 128 | 103 | 112 | 105 | 113 | 104 | 122 | 114 | 111 | 75.6 | 97.3 | 85.7 | 93.5 | 101 | 108 | 100 | 99.4 | 114 | 99.8 | 87.1
6 | CN1CCN(C2=Nc3cc(Cl)ccc3Nc3ccccc32)CC1 | 85.6 | 93.8 | 108 | 107 | 83.2 | 111 | 109 | 121 | 113 | 106 | 25.6 | 93 | 96.1 | 107 | 96.1 | 68.9 | 92.9 | 103 | 110 | 109 | 112 | 20.6 | 94.3 | 116 | 104 | 83.1 | 83.5 | 118 | 112 | 123 | 110 | 92 | 22.5
7 | CC(C)CNc1ccnc(NCc2csc(-c3ccccc3)n2)n1 | 88.4 | 107 | 104 | 100 | 121 | 113 | 107 | 120 | 108 | 64.2 | 61.1 | 110 | 110 | 127 | 113 | 138 | 145 | 142 | 138 | 113 | 88.9 | 68.2 | – | – | – | – | – | – | – | – | – | – | –
8 | O=C(O)Cn1nnc(-c2cc(N3CCC(Oc4cc(F)ccc4Br)CC3)no2)n1 | 73.8 | 82.5 | 92.6 | 75.8 | 95.6 | 101 | 104 | 102 | 86.3 | 97.2 | 62.2 | 102 | 75.3 | 101 | 94.2 | 98 | 100 | 96.9 | 120 | 90.9 | 103 | 85.4 | 80.1 | 88.9 | 95.6 | 106 | 93.6 | 102 | 116 | 106 | 94 | 102 | 103
9 | O=C1c2ccccc2-[n+]2ccc3c([nH]c4ccccc43)c21 | 91 | 89.3 | 102 | 77.2 | 70.7 | 73.6 | 68 | 55.8 | 19.6 | 3.74 | 2.58 | 116 | 109 | 102 | 92.1 | 78.2 | 92.7 | 85.7 | 59.6 | 32.3 | 3.62 | 2.81 | 92.7 | 98 | 91.9 | 80.2 | 87.4 | 84.9 | 65.4 | 58.1 | 32.6 | 3.56 | 2.5
